Each structure is given as a SMILES string.

The target in this assay is T1, catalytic domain of human Bub1 (amino acids 704-1085) (Homo sapiens, UniProt O43683).
T1 construct: catalytic domain of human Bub1 (amino acids 704-1085); His6 (N); made in house; host or cells: Hi5 insect cells
T1 sequence (O43683 704-1085): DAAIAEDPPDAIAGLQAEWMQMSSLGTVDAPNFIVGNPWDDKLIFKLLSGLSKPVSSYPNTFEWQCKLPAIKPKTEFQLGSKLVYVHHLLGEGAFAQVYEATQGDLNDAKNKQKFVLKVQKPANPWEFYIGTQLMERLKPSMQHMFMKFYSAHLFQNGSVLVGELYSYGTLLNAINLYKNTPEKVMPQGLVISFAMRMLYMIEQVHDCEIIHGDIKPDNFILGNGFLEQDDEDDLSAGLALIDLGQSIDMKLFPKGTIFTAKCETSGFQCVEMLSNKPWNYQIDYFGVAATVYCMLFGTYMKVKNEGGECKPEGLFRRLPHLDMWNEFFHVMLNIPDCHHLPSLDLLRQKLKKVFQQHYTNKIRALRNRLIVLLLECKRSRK
The assay can be described thus: Bub1 kinase assay (TR-FRET). The format is biochemical. To be noted: TR-FRET; ATP 10 μM, peptide substrate 1 μM; 60 min at 22° C.; average or median if tested more than once; read-out: Inhibition of Bub1 kinase IC50. The method, boiled down:
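Human Bub1 catalytic domain (704-1085, His6-tagged, Hi5-expressed, ~200 ng/mL) preincubated with compound 15 min at 22 °C, then reacted 60 min at 22 °C with 10 μM ATP and 1 μM biotinylated peptide substrate, pH 7.5. EDTA stop; TR-FRET 665/620 ratio; IC50 from 4-parameter fit, 11 concentrations in duplicate.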
(In general: Time-resolved FRET reads energy transfer from a long-lived donor to a nearby acceptor.)
The term IC50 denotes the midpoint of a concentration-inhibition curve. As to `CCNC(=O)N1CC(=O)c2c([nH]c(-c3ccnc(NC(C)=O)c3)c2Nc2ccccc2)C1` [Example 28], the IC50 amounted to 13 nM.
As for `COc1ccc(C(=O)Nc2cc(-c3[nH]c4c(c3Nc3ccccc3)C(=O)CN(C(=O)OC(C)(C)C)C4)ccn2)cc1F` [Example 283, tert-Butyl 2-2-[(3-fluoro-4-methoxybenzoyl)amino]pyridin-4-yl-4-oxo-3-(phenylamino)-1,4,5,7-tetrahydro-6H-pyrrolo[2,3-c]pyridine-6-carboxylate], the figure is 38 nM; as for `COC(=O)N1CC(=O)c2c([nH]c(-c3ccnc(NC(=O)[C@@H]4C[C@@H]4F)c3)c2Nc2ccccc2)C1` (relative stereo) [Example 139, Methyl 3-anilino-2-[2-({[rel-(1S,2S)-2-fluorocyclopropyl]carbonyl}amino)pyridin-4-yl]-4-oxo-1,4,5,7-tetrahydro-6H-pyrrolo[2,3-c]pyridine-6-carboxylate], 7 nM; as for `O=C1CN(C(=O)NCC(F)F)Cc2[nH]c(-c3ccncc3)c(Nc3ccccc3)c21` [Example 83, N-(2,2-Difluoroethyl)-4-oxo-3-(phenylamino)-2-(pyridin-4-yl)-1,4,5,7-tetrahydro-6H-pyrrolo[2,3-c]pyridine-6-carboxamide], 12 nM.
As for `COc1ccc(C(=O)Nc2cc(-c3[nH]c4c(c3Nc3ccccc3)C(=O)CN(C(=O)OC(C)(C)C)C4)ccn2)cc1` [Example 270, tert-Butyl 2-2-[(4-methoxybenzoyl)amino]pyridin-4-yl-4-oxo-3-(phenylamino)-1,4,5,7-tetrahydro-6H-pyrrolo[2,3-c]pyridine-6-carboxylate], the figure is 37 nM; as for `COC(=O)N1CC(=O)c2c([nH]c(-c3ccncc3OCC(F)(F)F)c2Nc2ccccc2)C1` [Example 242, Methyl 4-oxo-3-(phenylamino)-2-[3-(2,2,2-trifluoroethoxy)pyridin-4-yl]-1,4,5,7-tetrahydro-6H-pyrrolo[2,3-c]pyridine-6-carboxylate], 57 nM.
As to `CC(=O)Nc1cc(-c2[nH]c3c(c2Nc2ccccc2)C(=O)CN(C(=O)OCCF)C3)ccn1` [Example 184, 2-Fluoroethyl 2-(2-acetamidopyridin-4-yl)-3-anilino-4-oxo-1,4,5,7-tetrahydro-6H-pyrrolo[2,3-c]pyridine-6-carboxylate], the half-inhibitory concentration (IC50) is 8 nM.
As for `COC(=O)N1CC(=O)c2c([nH]c(-c3ccnc(NC(C)=O)c3)c2Nc2ccccc2)C1` [Example 31, Methyl 2-[2-(acetylamino)pyridin-4-yl]-4-oxo-3-(phenylamino)-1,4,5,7-tetrahydro-6H-pyrrolo[2,3-c]pyridine-6-carboxylate], the figure is 7 nM; as for `O=C1CNCc2[nH]c(-c3ccnc(NC(=O)C4CC4(F)F)c3)c(Nc3ccccc3)c21` (racemic) [Example 137, (1RS)—N-[4-(3-Anilino-4-oxo-4,5,6,7-tetrahydro-1H-pyrrolo[2,3-c]pyridin-2-yl)pyridin-2-yl]-2,2-difluorocyclopropanecarboxamide], 64 nM.
The same measure for `COC(=O)N1CC(=O)c2c([nH]c(-c3ccncc3OCC(F)F)c2Nc2ccccc2)C1` [Example 236, Methyl 2-[3-(2,2-difluoroethoxy)pyridin-4-yl]-4-oxo-3-(phenylamino)-1,4,5,7-tetrahydro-6H-pyrrolo[2,3-c]pyridine-6-carboxylate]: 16 nM.
As for `Cc1cnccc1-c1[nH]c2c(c1Nc1ccccc1)C(=O)CN(C(=O)OC(C)(C)C)C2` [Example 99, tert-Butyl 2-(3-methylpyridin-4-yl)-4-oxo-3-(phenylamino)-1,4,5,7-tetrahydro-6H-pyrrolo[2,3-c]pyridine-6-carboxylate], the figure is 205 nM; as for `CC(=O)Nc1cc(-c2[nH]c3c(c2Nc2ccccc2)C(=O)CN(C(=O)c2cncs2)C3)ccn1` [Example 175, N-{4-[3-Anilino-4-oxo-6-(1,3-thiazol-5-ylcarbonyl)-4,5,6,7-tetrahydro-1H-pyrrolo[2,3-c]pyridin-2-yl]pyridin-2-yl}acetamide], 8 nM.
Consider `CNC(=O)N1CC(=O)c2c([nH]c(-c3ccncc3OCCOC)c2Nc2ccccc2)C1` [Example 249], for which the IC50 was found to be 5 nM.
On to `COc1cnccc1-c1[nH]c2c(c1Nc1ccccc1)C(=O)CN(S(=O)(=O)CCC(F)(F)F)C2` [Example 111, 2-(3-Methoxypyridin-4-yl)-3-(phenylamino)-6-[(3,3,3-trifluoropropyl)sulfonyl]-1,5,6,7-tetrahydro-4H-pyrrolo[2,3-c]pyridin-4-one], for which the half-inhibitory concentration (IC50) is 7 nM.
The same measure for `CC(C)(C)OC(=O)N1CC(=O)c2c([nH]c(-c3ccncc3OCC(F)(F)F)c2Nc2ccccc2)C1` [Example 221, tert-Butyl 3-anilino-4-oxo-2-[3-(2,2,2-trifluoroethoxy)pyridin-4-yl]-1,4,5,7-tetrahydro-6H-pyrrolo[2,3-c]pyridine-6-carboxylate]: 104 nM; for `O=C1COCc2[nH]c(-c3ccncc3)c(Nc3ccccc3)c21` [Example 6, 3-(phenylamino)-2-(pyridin-4-yl)-1,7-dihydropyrano[3,4-b]pyrrol-4(5H)-one]: 42 nM; for `O=C1CN(S(=O)(=O)CCO)Cc2[nH]c(-c3ccncc3)c(Nc3ccccc3)c21` [Example 123, 3-Anilino-6-[(2-hydroxyethyl)sulfonyl]-2-(pyridin-4-yl)-1,5,6,7-tetrahydro-4H-pyrrolo[2,3-c]pyridin-4-one]: 3 nM.
The same measure for `COC(=O)N1CC(=O)c2c([nH]c(-c3ccnc(C)n3)c2Nc2ccccc2)C1` [Example 27, Methyl 2-(2-methylpyrimidin-4-yl)-4-oxo-3-(phenylamino)-1,4,5,7-tetrahydro-6H-pyrrolo[2,3-c]pyridine-6-carboxylate]: 59 nM.
The same measure for `O=C1CNCc2[nH]c(-c3ccncc3Cl)c(Nc3ccccc3)c21` [Example 2, 2-(3-Chloropyridin-4-yl)-3-(phenylamino)-1,5,6,7-tetrahydro-4H-pyrrolo[2,3-c]pyridin-4-one]: 236 nM; for `CC(C)(C)C(=O)N1CC(=O)c2c([nH]c(-c3ccncc3)c2Nc2ccccc2)C1` [Example 9, 6-(2,2-Dimethylpropanoyl)-3-(phenylamino)-2-(pyridin-4-yl)-1,5,6,7-tetrahydro-4H-pyrrolo[2,3-c]pyridin-4-one]: 4 nM; for `CC(=O)Nc1cc(-c2[nH]c3c(c2Nc2ccccc2)C(=O)CN(C(=O)CCS(C)(=O)=O)C3)ccn1` [Example 210, N-(4-6-[3-(Methylsulfonyl)propanoyl]-4-oxo-3-(phenylamino)-4,5,6,7-tetrahydro-1H-pyrrolo[2,3-c]pyridin-2-ylpyridin-2-yl)acetamide]: 3 nM.
For `O=C1CN(C(=O)N2CCCC2)Cc2[nH]c(-c3ccncc3)c(Nc3ccccc3)c21` [Example 92, 3-(phenylamino)-2-(pyridin-4-yl)-6-(pyrrolidin-1-ylcarbonyl)-1,5,6,7-tetrahydro-4H-pyrrolo[2,3-c]pyridin-4-one], the IC50 was 4 nM.
As for `O=C1CNCc2[nH]c(-c3ccnc(NC(=O)[C@@H]4C[C@@H]4F)c3)c(Nc3ccccc3)c21` (relative stereo) [Example 136, rel-(1S,2S)—N-[4-(3-Anilino-4-oxo-4,5,6,7-tetrahydro-1H-pyrrolo[2,3-c]pyridin-2-yl)pyridin-2-yl]-2-fluorocyclopropanecarboxamide], the figure is 81 nM; as for `CCNC(=O)Nc1cc(-c2[nH]c3c(c2Nc2ccccc2)C(=O)COC3)ccn1` [Example 54, 1-Ethyl-3-{4-[4-oxo-3-(phenylamino)-1,4,5,7-tetrahydropyrano[3,4-b]pyrrol-2-yl]pyridin-2-yl}urea], 77 nM.
As for `O=C1CSCc2[nH]c(-c3ccncc3Cl)c(Nc3ccccc3)c21` [Example 38, 2-(3-Chloropyridin-4-yl)-3-(phenylamino)-1,7-dihydrothiopyrano[3,4-b]pyrrol-4(5H)-one], the figure is 40 nM.
As for `COc1ccc(C(=O)Nc2cc(-c3c(Nc4ccccc4)c4c(n3C)CN(C(C)=O)CC4=O)ccn2)cc1F` [Example 288, N-4-[6-Acetyl-1-methyl-4-oxo-3-(phenylamino)-4,5,6,7-tetrahydro-1H-pyrrolo[2,3-c]pyridin-2-yl]pyridin-2-yl-3-fluoro-4-methoxybenzamide], the figure is 404 nM; as for `CS(=O)(=O)N1CC(=O)c2c([nH]c(-c3ccncc3OCC(F)F)c2Nc2ccccc2)C1` [Example 232, 3-Anilino-2-[3-(2,2-difluoroethoxy)pyridin-4-yl]-6-(methylsulfonyl)-1,5,6,7-tetrahydro-4H-pyrrolo[2,3-c]pyridin-4-one], 12 nM; as for `O=C1CN(S(=O)(=O)C(F)F)Cc2[nH]c(-c3ccncc3)c(Nc3ccccc3)c21` [Example 68, 6-[(Difluoromethyl)sulfonyl]-3-(phenylamino)-2-(pyridin-4-yl)-1,5,6,7-tetrahydro-4H-pyrrolo[2,3-c]pyridin-4-one], 5 nM.
With `O=C1CN(C(=O)c2cnc[nH]2)Cc2[nH]c(-c3ccncc3)c(Nc3ccccc3)c21` [Example 59, 6-(1H-Imidazol-5-ylcarbonyl)-3-(phenylamino)-2-(pyridin-4-yl)-1,5,6,7-tetrahydro-4H-pyrrolo[2,3-c]pyridin-4-one], the IC50 came to 10 nM.
Turning to `O=C1CN(C(=O)c2ccncc2)Cc2[nH]c(-c3ccnc(NC(=O)[C@@H]4C[C@@H]4F)c3)c(Nc3ccccc3)c21` [Example 200, (1S,2S)-2-Fluoro-N-4-[4-oxo-3-(phenylamino)-6-(pyridin-4-ylcarbonyl)-4,5,6,7-tetrahydro-1H-pyrrolo[2,3-c]pyridin-2-yl]pyridin-2-ylcyclopropanecarboxamide], the IC50 was 7 nM.

The record behind these values is patent publication US20200216439A1, “HETERO-1,5,6,7-TETRAHYDRO-4H-INDOL-4-ONES” (BAYER PHARMA AKTIENGESELLSCHAFT, priority 2015, published 2020).
